Experimental data taken from the supplement of paper PMC6470124.

Key:
[1] = absolute recovery over mixed-bed multilayer solid-phase extraction; higher = better recovery; conditions: enrichment method: SPE
Summary of the method: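 Absolute recovery rests on background-corrected response ratios of pre- versus post-spiked samples, averaged over at least two replicates. Wastewater (100–250 mL, pH 6.5, glass-fibre filtered) was spiked at 1000 ng/L and unfiltered nanopure water (1000 mL) at 200 ng/L, before or after three-layer mixed-bed cartridge extraction or not at all, with exceptions for some classes. Analysis after internal standard addition used liquid chromatography with high-resolution tandem mass spectrometry in both ionisation modes.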

[2] = LC retention time (Atlantis T3, 5-95% MeOH gradient, 0.1% formic acid); higher = more retained / less polar
Summary of the method: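 Retention times were recorded for reference standards (purity ≥ 95%) on a polar reversed-phase C18 column (Atlantis T3, 3 × 150 mm, 3 μm) at 0.3 mL/min. Elution used water and methanol, each with 0.1% formic acid, in a gradient from 5 to 95% methanol over 17.5 min. Detection was by high-resolution tandem mass spectrometry on a QExactive Plus, with positive and negative electrospray in separate runs. Peaks were found and integrated in TraceFinder (5 ppm tolerance, at least three points per peak) and then checked by hand.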

[3] = absolute recovery over vacuum-assisted evaporative concentration; higher = better recovery; conditions: enrichment method: VEC
Summary of the method: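 Absolute recovery was calculated as (response ratio pre − unspiked)/(post − unspiked) × 100 from averages of ≥ 2 replicates. Influent (6 mL), effluent (15 mL), and surface and nanopure water (60 mL) samples were spiked with standards before concentration, after concentration, or not at all, at 200 ng/L for nanopure and surface water or 1000 ng/L for wastewater, with class- and compound-specific adjustments. Samples were evaporated at 55 °C and 20 mbar to about 0.3 mL, made up to 0.4 mL and centrifuged, then internal standards were added before LC-HRMS/MS analysis.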

absolute recovery ([1]; nanopure water) [%]	absolute recovery ([1]; surface water) [%]	absolute recovery ([1]; wastewater effluent) [%]	absolute recovery ([1]; wastewater influent) [%]	LC retention time [2] [min]	absolute recovery ([3]; wastewater effluent) [%]	absolute recovery ([3]; wastewater influent) [%]	SMILES
84.5	106	96.3	58.1	16.1	110	108	C[NH+](C)CCC=C1c2ccccc2CCc2ccccc21 [Amitriptyline E]
	12.2	17.8	30.7	9.5	59.2	96.9	CC1(C)SC(CNC(=O)C([NH3+])c2ccc(O)cc2)[NH2+]C1C(=O)[O-] (centres undefined) [Amoxicillin-EP-Impurity-E]
76.8	79.4	82.1	91.7	12.3	105	107	O=C1C=CC(=C2NC=CNC2=O)C=C1 [Amoxicillin-EP-Impurity-F]
50	41.1	53.3	58.7	12.6	48	36.3	COC(=O)C(Cc1ccccc1)NC(=O)C([NH3+])CC(=O)[O-] (centres undefined) [Aspartam]
87.6	100	95.5	95.1	20.3	116	61.4	COC(=O)NC(C(=O)NC(Cc1ccccc1)C(O)CN(Cc1ccc(-c2ccccn2)cc1)NC(=O)C(NC(=O)OC)C(C)(C)C)C(C)(C)C (centres undefined) [Atazanavir]
97.3	98.9	92.1	75.4	10.5	108	104	CC(C)[NH2+]CC(O)COc1ccc(CC(=O)[O-])cc1 (centres undefined) [Atenolol-acid (=Metoprolol acid)]
65.5	70.3	65.2	52.7	6.53	87.6		NC(=O)Cc1ccc(OCC(O)C[NH3+])cc1 (centres undefined) [Atenolol-desisopropyl]
92.1	92.6	87.4	90.6	8.64	107	103	CC(C)[NH2+]CC(O)COc1ccc(CC(N)=O)cc1 (centres undefined) [Atenolol]
74.6	87	79.7	94.5	15.5	102	96.6	C[NH2+]CCC(Oc1ccccc1C)c1ccccc1 (centres undefined) [Atomoxetin]
31	42.7	45.5	46.5	19.8	49.3	57.8	CC(C)c1c(C(=O)Nc2ccccc2)c(-c2ccccc2)c(-c2ccc(F)cc2)n1CCC(O)CC(O)CC(=O)[O-] (centres undefined) [Atorvastatin]
92.5	96.9	92.1	91.6	15.3	102	101	CC(C)Nc1nc(N)nc(Cl)n1 [Atrazin-Desethyl]
93.4	93.3	91.3	94.6	13.4	102	103	CCNc1nc(N)nc(Cl)n1 [Atrazin-Desisopropyl]
76.8	74.2	71.2	92.3	7.67	107	93.7	CC(C)Nc1nc(N)nc(O)n1 [Atrazin-desethyl-2-hydroxy]
77.4	93.7	90.8	96.7	13	97.9		CCC1OC(=O)C(C)C(OC2CC(C)(OC)C(O)C(C)O2)C(C)C(OC2OC(C)CC([NH+](C)C)C2O)C(C)(O)CC(C)C[NH+](C)C(C)C(O)C1(C)O (centres undefined) [Azithromycin]
96.4	92.6	93.5	99.1	18	101	97.7	COC=C(C(=O)[O-])c1ccccc1Oc1cc(Oc2ccccc2C#N)ncn1 [Azoxystrobin-acid]
93.2	111	93.7	70.7	16.2	117	109	CC(COc1ccccc1Cc1ccccc1)[NH+]1CCCCC1 (centres undefined) [Benproperine]
94.2	94.6	95.3	94.3	19.7	108	102	CC(C)OC(=O)NC(C(=O)NC(C)c1nc2ccc(F)cc2s1)C(C)C (centres undefined) [Benthiavalicarb-isopropyl]

absolute recovery ([1]; nanopure water) [%]	absolute recovery ([1]; surface water) [%]	absolute recovery ([1]; wastewater effluent) [%]	absolute recovery ([1]; wastewater influent) [%]	LC retention time [2] [min]	absolute recovery ([3]; wastewater effluent) [%]	absolute recovery ([3]; wastewater influent) [%]	SMILES
79.3	76.3	72	142	14.2	86.7	22.6	O=c1[nH]sc2ccccc12 [Benzisothiazolin-3-on (=BIT)]
100	111	100	77.4	20.7	51.4	56.6	COc1ccc(C(=O)c2ccccc2)c(O)c1 [Benzophenon-3 (=2-Hydroxy-4-methoxybenzophenon)]
99.4			95.1	13.4	104	102	c1ccc2[nH]nnc2c1 [Benzotriazol]
93.1	89.4	89	98.3	19.6	92.7	85.2	CC(=O)OCC(=O)C1(O)C(C)CC2C3CCC4=CC(=O)C=CC4(C)C3(F)C(O)CC21C (centres undefined) [Betamethasone 21-acetate C]
93.8	88.9	90.5	98.7	18.7	104	102	CC1CC2C3CCC4=CC(=O)C=CC4(C)C3(F)C(O)CC2(C)C1(O)C(=O)CO (centres undefined) [Betamethasone]
98	98.8	92.9	94	19.5	104	103	CC(C)(Oc1ccc(CCNC(=O)c2ccc(Cl)cc2)cc1)C(=O)[O-] [Bezafibrat]
75.6	63.6	77	124	23.4	104	108	O=C([O-])c1cc(Oc2ccc(Cl)cc2Cl)ccc1[N+](=O)[O-] [Bifenox-acid]
103	91.8	91.4	89.8	13.8	110	98.1	CC(C)[NH2+]CC(O)COc1ccc(COCCOC(C)C)cc1 (centres undefined) [Bisoprolol]
95.4	101	102	76.1	20.5	109	108	Cn1cc(C(=O)Nc2ccc(F)cc2-c2ccc(Cl)c(Cl)c2)c(C(F)F)n1 [Bixafen]
88.6	83.9	83.3	84.7	17.9	93.4	71.9	CCCCOc1ccc(CC(=O)NO)cc1 [Bufexamac]
92	93.1	90.3	93.7	13.9	104	103	CCCC[NH+]1CCCCC1C(=O)Nc1c(C)cccc1C (centres undefined) [Bupivacaine]
96.9	97.3	90.7	92.5	18.7	104	99.4	CCOc1nc2cccc(C(=O)[O-])c2n1Cc1ccc(-c2ccccc2-c2nnn[n-]2)cc1 [Candesartan]
93.3	93.1	90.8	96.3	17.7	108	101	CCCCCOC(=O)[N-]c1nc(=O)n(C2OC(C)C(O)C2O)cc1F (centres undefined) [Capecitabin]
95.2	97.5	94.2	96	15.3	97.7	93.4	NC(=O)N1c2ccccc2C(O)C(O)c2ccccc21 (centres undefined) [Carbamazepin-10-11-dihydro-10-11-dihydroxy]
96.6	97.3	94.8	92.2	15.7	105	102	NC(=O)N1c2ccccc2C2OC2c2ccccc21 (centres undefined) [Carbamazepin-10-11-epoxid]
99	97.8	93.5	93.2	17.6	104	98.2	NC(=O)N1c2ccccc2C=Cc2ccccc21 [Carbamazepin]

SMILES	absolute recovery ([1]; nanopure water) [%]	absolute recovery ([1]; surface water) [%]	absolute recovery ([1]; wastewater effluent) [%]	absolute recovery ([1]; wastewater influent) [%]	LC retention time [2] [min]	absolute recovery ([3]; wastewater effluent) [%]	absolute recovery ([3]; wastewater influent) [%]
CC([NH3+])Cc1ccccc1 (centres undefined) [Amphetamin]	97.7	85.5	87.4	91.8	10.4	97.8	85.5
COC(=O)[N-]S(=O)(=O)c1ccc(N)cc1 [Asulam]	101	34.2	42.6	43.9	10.5	95.8	88.4
CCNc1nc(NC(C)C)nc(OC)n1 [Atraton]	92.8	94.2	90.4	96	14.4	101	102
CCNc1nc(O)nc(NC(C)C)n1 [Atrazin-2-Hydroxy]	97.8	98	94.5	90	11.4	102	102
CCNc1nc(Cl)nc(NC(C)C)n1 [Atrazin]	96.7	98.1	93.8	91.5	18.5	99.3	97.7
C[NH+]1C2CCC1CC(OC(=O)C(CO)c1ccccc1)C2 (centres undefined) [Atropine]	94.2	93.2	90.9	91.5	11.1	106	99.7
COP(=O)(OC)SCn1c(=O)oc2cc(Cl)cnc21 [Azamethiphos]	65.5	65.7	65.1	50.5	16.6	82.9	67
COC=C(C(=O)OC)c1ccccc1Oc1cc(Oc2ccccc2C#N)ncn1 [Azoxystrobin]	96.9	96	92.8	93.6	18.9	102	99.4
COC(=O)C(C)N(C(=O)Cc1ccccc1)c1c(C)cccc1C (centres undefined) [Benalaxyl]	95.9	93	96	105	21.1	97.6	94.9
CC(C)N1C(=O)c2ccccc2[N-]S1(=O)=O [Bentazon]	97.3	97.5		93.1	17.8	105	101
C[NH+]1C2CCC1C(C(=O)[O-])C(OC(=O)c1ccccc1)C2 (centres undefined) [Benzoylecgonin]	97.8	96	94.8	95.1	12.8	120	110
CC(O)(CS(=O)(=O)c1ccc(F)cc1)C(=O)Nc1ccc(C#N)c(C(F)(F)F)c1 (centres undefined) [Bicalutamid]	100	97	94.3	95.2	18.6		102
O=C(Nc1ccccc1-c1ccc(Cl)cc1)c1cccnc1Cl [Boscalid]	102	97.2	95.2	104	19.4	88.4	105
N#Cc1cc(Br)c([O-])c(Br)c1 [Bromoxynil]	92.1	82.5	86.9	108	18.6	101	90.3
O=[N+]([O-])C(Br)(CO)CO [Bronopol]	13.9	6.4	7	7.8	9.24	52.8	
CCCCc1c(C)nc(NCC)nc1OS(=O)(=O)N(C)C [Bupirimate]	83.8	85.1	93.3	74.8	19.3	105	117
CC(C)N1C(=O)N(c2ccccc2)CSC1=NC(C)(C)C [Buprofezin]	67.9	86.2	87.5	118	22	75.3	100
CC([NH2+]C(C)(C)C)C(=O)c1cccc(Cl)c1 (centres undefined) [Bupropion]	79.1	78	74.3	78.3	13.5	51.1	31.5
